Tests used:
[1] = tested on: irritant contact dermatitis elicited with tetradecanoylphorbol-13-acetate (TPA) on ears of mice; experiment: Anti-Inflammatory Test System (TPA-elicited irritant contact dermatitis, mouse ear); format: in vivo, strain NMRI; conditions: for anti-inflammatory activity (in words): mouse, in vivo; for inhibition in % (auricular weight, inflammatory swelling): topical 10 μl, 30 min before TPA, read 6 hours after
Procedure: The test sites on the inner surface of the right external ears of mice, e.g. strain NMRI, (8 per group) are treated with 10 μl of the dissolved test compound or with the vehicle (a 4:4:2 mixture of ethanol/acetone/dimethylacetamide) alone. The test compounds are applied at concentrations shown in the TEST RESULT TABLE. Thirty minutes after the treatment irritant contact dermatitis is elicited at the treated auricular sites with 10 μl 0.005% tetradecanoylphorbol-13-acetate (TPA). Skin inflammation is assessed 6 hours after the elicitation by determination of the auricular weights, as a measure of inflammatory swelling. The animals are killed and both ears are cut off and weighed. Inhibitory activity of test compounds is calculated from differences in right and left ears (internal controls) in mice treated with the test compounds compared with animals treated with the vehicle only. Results obtained are as set out in TEST RESULT TABLE below: In the TEST RESULT TABLE the concentrations of the compounds (in bold) used are indicated in micromol/litre. The values given in the TEST RESULT TABLE (in regular letters) are the inhibition in % determined according to the ANTI-INFLAMMATORY TEST SYSTEM used.

[2] = molecular target: T1, purified human steroid sulfatase (Homo sapiens, UniProt P08842); experiment: Assay of Human Steroid Sulfatase (4-methylumbelliferyl sulfate cleavage, fluorescence); conditions: reference compound, determined in parallel to test compounds
T1 sequence (P08842 22-583): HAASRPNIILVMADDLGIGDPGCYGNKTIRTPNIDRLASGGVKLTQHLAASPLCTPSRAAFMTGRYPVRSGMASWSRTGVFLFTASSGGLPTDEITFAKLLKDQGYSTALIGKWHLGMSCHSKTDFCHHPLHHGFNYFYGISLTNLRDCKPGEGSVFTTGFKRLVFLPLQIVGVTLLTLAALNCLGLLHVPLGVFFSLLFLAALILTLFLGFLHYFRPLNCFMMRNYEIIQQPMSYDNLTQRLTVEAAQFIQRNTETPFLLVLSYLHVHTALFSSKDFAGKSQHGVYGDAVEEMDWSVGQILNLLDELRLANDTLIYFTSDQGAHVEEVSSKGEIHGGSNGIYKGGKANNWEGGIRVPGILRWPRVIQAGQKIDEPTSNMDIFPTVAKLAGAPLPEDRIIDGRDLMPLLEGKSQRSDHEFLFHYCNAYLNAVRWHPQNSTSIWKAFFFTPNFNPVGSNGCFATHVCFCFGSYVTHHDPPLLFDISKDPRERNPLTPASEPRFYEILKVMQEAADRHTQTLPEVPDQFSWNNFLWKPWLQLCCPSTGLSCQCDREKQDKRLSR
Procedure: Human placenta is obtained freshly after delivery and stripped of membranes and connective tissues. For storage, the material is frozen at −70° C. After thawing, all further steps are carried out at 4° C., while pH values are adjusted at 20° C. 400 g of the tissue is homogenized in 1.2 l of buffer A (50 mM Tris-HCl, pH 7.4, 0.25 M sucrose). The homogenate obtained is centrifuged at 10,000×g for 45 minutes. The supernatant is set aside and the pellet obtained is re-homogenized in 500 ml of buffer A. After centrifugation, the two supernatants obtained are combined and subjected to ultracentrifugation (100,000×g, 1 hour). The pellet obtained is resuspended in buffer A and centrifugation is repeated. The pellet obtained is suspended in 50 ml of 50 mM Tris-HCl, pH 7.4 and stored at −20° C. until further work-up. After thawing, microsomes are collected by ultracentrifugation (as described above) and are suspended in 50 ml of buffer B (10 mM Tris-HCl, pH 7.0, 1 mM EDTA, 2 mM 2-mercaptoethanol, 1% Triton X-100, 0.1% aprotinin). After 1 hour on ice with gentle agitation, the suspension is centrifuged (100,000×g, 1 hour). The supernatant containing the enzyme activity is collected and the pH is adjusted to 8.0 with 1 M Tris. […]
Plates are incubated at 37° C. for 1 hour. […] Fluorescence intensity is determined in a Titertek Fluoroskan II instrument with λex=355 nm and λem=460 nm. […]

[3] = first value, column head printed 0 micromol/litre (alignment unclear)
[4] = second value, column head printed 0.1 micromol/litre (alignment unclear)
[5] = third value, column head printed 0.3 micromol/litre (alignment unclear)

Question: What does the source list for `CC(C)(C)OC(=O)N1CC2CCCCC(C1)C2C(=O)NS(=O)(=O)c1cc(C(F)(F)F)cc(C(F)(F)F)c1` (stereo not shown) [Example 217, 10-(3,5-bis-trifluoromethyl-benzenesulfonylaminocarbonyl)-8-aza-bicyclo[4.3.1]decane-8-carboxylic acid tert-butyl ester]?
Answer: anti-inflammatory activity (in words) [1]: anti-inflammatory activity; inhibition in % (auricular weight, inflammatory swelling) [1, 3]: 20%; inhibition in % (auricular weight, inflammatory swelling) [1, 4]: 36%; inhibition in % (auricular weight, inflammatory swelling) [1, 5]: 45%

Question: For `NC(=O)c1ccc(C(F)(F)F)cc1N1CCC(CS(=O)(=O)NC(=O)c2cc(C(F)(F)F)cc(C(F)(F)F)c2)CC1` [Example 379], which melting point is on record?
Answer: Its melting point is 268 to 273 °C.

Question: Which IC50 [2] does the source give for `C[C@]12CC[C@@H]3c4ccc(OS(N)(=O)=O)cc4CC[C@H]3[C@@H]1CCC2=O` [estrone sulfamate, estrone 3-O-sulfamate] here?
Answer: Its IC50 is ~60 nM.

Question: With `CC(C)(C)OC(=O)N1CC2CCCCC(C1)C2C(=O)NS(=O)(=O)c1cc(C(F)(F)F)cc(C(F)(F)F)c1` (stereo not shown) [Example 218] as the compound, how does the “anti-inflammatory activity (in words)” value [1] read?
Answer: Its value is “anti-inflammatory activity”.

Question: What about the “inhibition in % (auricular weight, inflammatory swelling)” value (“inhibition in %” below) [1, 3] of the same compound?
Answer: Its value is 20%.

Question: And the “inhibition in %” value [1, 4]?
Answer: Its value is 36%.

Question: What about the “inhibition in %” value [1, 5] of the same compound?
Answer: The value was 45%.
